ChEMBL document CHEMBL3352299, “Antiproliferative 4-(1,2,4-oxadiazol-5-yl)piperidine-1-carboxamides, a new tubulin inhibitor chemotype” (Bioorg Med Chem Lett, 2014)

How the values were obtained:
[1] = Antiproliferative activity against human UACC62 cells after 3 days by fluorescence assay; format: functional; details: UACC-62, 72 h
NCI-H322M = assay: Antiproliferative activity against human NCI-H322M cells after 3 days by fluorescence assay; format: functional; details: 72 h
[2] = Antiproliferative activity against human SKOV3 cells after 3 days by fluorescence assay; format: functional; details: SK-OV-3, 72 h
Tubulin (Homo sapiens) [3] = molecular target: T1, Tubulin (Homo sapiens) (UniProt P68371+Q9H4B7+P0DPH7+P68366+Q13509+Q71U36+P04350+Q3ZCM7+P07437+P68363+Q9BQE3+Q6PEY2+Q13885+Q9BVA1+Q9BUF5); assay: Displacement of [3H]-colchicine from tubulin (unknown origin) at 5 uM after 10 mins by turbidimetrically relative to control; format: protein-complex assay
NCI-H23 = assay: Antiproliferative activity against human NCI-H23 cells after 3 days by fluorescence assay; format: functional; details: NCI-H23, 72 h
SK-MEL-28 = assay: Antiproliferative activity against human SK-MEL-28 cells after 3 days by fluorescence assay; format: functional; details: SK-MEL-28, 72 h
MDA-MB-468 = assay: Antiproliferative activity against human MDA-MB-468 cells after 3 days by fluorescence assay; format: functional; details: MDA-MB-468, 72 h
A549 = assay: Antiproliferative activity against human A549 cells after 3 days by fluorescence assay; format: functional; details: A549, 72 h
SK-MEL-5 = assay: Antiproliferative activity against human SK-MEL-5 cells after 3 days by fluorescence assay; format: functional; details: SK-MEL-5, 72 h
[4] = Antiproliferative activity against human PC3 cells after 3 days by fluorescence assay; format: functional; details: PC-3, 72 h
IGROV-1 = assay: Antiproliferative activity against human IGROV1 cells after 3 days by fluorescence assay; format: functional; details: IGROV-1, 72 h
[5] = Antiproliferative activity against human LOXIMVI cells after 3 days by fluorescence assay; format: functional; details: LOX IMVI, 72 h
[6] = Antiproliferative activity against human UO31 cells after 3 days by fluorescence assay; format: functional; details: UO-31, 72 h
[7] = Antiproliferative activity against human HCC2998 cells after 3 days by fluorescence assay; format: functional; details: HCC 2998, 72 h
DU-145 [8] = assay: (§1) Antiproliferative activity against human DU145 cells after 3 days by fluorescence assay; format: functional; details: DU-145, 72 h
[9] = Antiproliferative activity against human OVCAR5 cells after 3 days by fluorescence assay; format: functional; details: OVCAR-5, 72 h
Tubulin (Homo sapiens) [10] = molecular target: T1, Tubulin (Homo sapiens); assay: Displacement of [3H]-colchicine from tubulin (unknown origin) at 50 uM after 10 mins by turbidimetrically relative to control; format: protein-complex assay
HOP-62 = assay: Antiproliferative activity against human HOP62 cells after 3 days by fluorescence assay; format: functional; details: HOP-62, 72 h
SN12C = assay: Antiproliferative activity against human SN12C cells after 3 days by fluorescence assay; format: functional; details: 72 h
NCI-H460 = assay: Antiproliferative activity against human NCI-H460 cells after 3 days by fluorescence assay; format: functional; details: NCI-H460, 72 h
NCI-H226 = assay: Antiproliferative activity against human NCI-H226 cells after 3 days by fluorescence assay; format: functional; details: NCI-H226, 72 h
786-0 = assay: Antiproliferative activity against human 786-0 cells after 3 days by fluorescence assay; format: functional; details: 786-0, 72 h
SK-MEL-2 = assay: Antiproliferative activity against human SK-MEL-2 cells after 3 days by fluorescence assay; format: functional; details: SK-MEL-2, 72 h
[11] = Antiproliferative activity against human COLO205 cells after 3 days by fluorescence assay; format: functional; details: COLO 205, 72 h
[12] = Antiproliferative activity against human NCI-ADR-RES cells after 3 days by fluorescence assay; format: functional; details: 72 h
[13] = Antiproliferative activity against human OVCAR8 cells after 3 days by fluorescence assay; format: functional; details: OVCAR-8, 72 h
[14] = Antiproliferative activity against human HOP92 cells after 3 days by fluorescence assay; format: functional; details: HOP-92, 72 h
M14 = assay: Antiproliferative activity against human M14 cells after 3 days by fluorescence assay; format: functional; details: M14, 72 h
DU-145 [15] = assay: as §1; format: functional; details: DU-145, 72 h; remark: listed apart in the source
KM12 = assay: Antiproliferative activity against human KM12 cells after 3 days by fluorescence assay; format: functional; details: KM12, 72 h
HT-29 = assay: Antiproliferative activity against human HT-29 cells after 3 days by fluorescence assay; format: functional; details: HT-29, 72 h
U-251 = assay: Antiproliferative activity against human U251 cells after 3 days by fluorescence assay; format: functional; details: U-251, 72 h
SW-620 = assay: Antiproliferative activity against human SW620 cells after 3 days by fluorescence assay; format: functional; details: SW-620, 72 h
[16] = Antiproliferative activity against human HCT15 cells after 3 days by fluorescence assay; format: functional; details: HCT-15, 72 h
SNB-19 = assay: Antiproliferative activity against human SNB19 cells after 3 days by fluorescence assay; format: functional; details: SNB-19, 72 h
MCF7 = assay: Antiproliferative activity against human MCF7 cells after 3 days by fluorescence assay; format: functional; details: MCF7, 72 h
Tubulin = assay: Displacement of [3H]-colchicine from tubulin (unknown origin) after 10 mins by turbidimetrically; format: protein-complex assay, Homo sapiens
Malme-3M = assay: Antiproliferative activity against human MALME-3M cells after 3 days by fluorescence assay; format: functional; details: 72 h
MDA-MB-435 = assay: Antiproliferative activity against human MDA-MB-435 cells after 3 days by fluorescence assay; format: functional; details: MDA-MB-435, 72 h
Tubulin (Homo sapiens) [17] = molecular target: T1, Tubulin (Homo sapiens); assay: Displacement of [3H]-colchicine from tubulin (unknown origin) at 1 uM after 10 mins by turbidimetrically relative to control; format: protein-complex assay
SNB-75 = assay: Antiproliferative activity against human SNB75 cells after 3 days by fluorescence assay; format: functional; details: SNB-75, 72 h
[18] = Antiproliferative activity against human RXF393 cells after 3 days by fluorescence assay; format: functional; details: RXF 393, 72 h
[19] = Antiproliferative activity against human Hs 578T cells after 3 days by fluorescence assay; format: functional; details: 72 h
[20] = Antiproliferative activity against human UACC257 cells after 3 days by fluorescence assay; format: functional; details: UACC-257, 72 h
[21] = Antiproliferative activity against human SF295 cells after 3 days by fluorescence assay; format: functional; details: SF-295, 72 h
HL-60(TB) = assay: Antiproliferative activity against human HL-60(TB) cells after 3 days by fluorescence assay; format: functional; details: HL-60, 72 h
CAKI-1 = assay: Antiproliferative activity against human CAKI-1 cells after 3 days by fluorescence assay; format: functional; details: CAKI-1, 72 h
NCI-H522 = assay: Antiproliferative activity against human NCI-H522 cells after 3 days by fluorescence assay; format: functional; details: NCI-H522, 72 h
TK-10 = assay: Antiproliferative activity against human TK10 cells after 3 days by fluorescence assay; format: functional; details: TK-10, 72 h
[22] = Antiproliferative activity against human BT549 cells after 3 days by fluorescence assay; format: functional; details: BT-549, 72 h
[23] = Antiproliferative activity against human SF539 cells after 3 days by fluorescence assay; format: functional; details: SF-539, 72 h
K562 = assay: Antiproliferative activity against human K562 cells after 3 days by fluorescence assay; format: functional; details: K562, 72 h
SF-268 = assay: Antiproliferative activity against human SF268 cells after 3 days by fluorescence assay; format: functional; details: SF-268, 72 h
MDA-MB-231 = assay: Antiproliferative activity against human MDA-MB-231 cells after 3 days by fluorescence assay; format: functional; details: MDA-MB-231, 72 h
A498 = assay: Antiproliferative activity against human A498 cells after 3 days by fluorescence assay; format: functional; details: A498, 72 h
[24] = Antiproliferative activity against human HCT116 cells after 3 days by fluorescence assay; format: functional; details: HCT-116, 72 h
[25] = Antiproliferative activity against human RPMI8226 cells after 3 days by fluorescence assay; format: functional; details: RPMI-8226, 72 h
[26] = Antiproliferative activity against human OVCAR4 cells after 3 days by fluorescence assay; format: functional; details: OVCAR-4, 72 h
CCRF-CEM = assay: Antiproliferative activity against human CCRF-CEM cells after 3 days by fluorescence assay; format: functional; details: 72 h
ACHN = assay: Antiproliferative activity against human ACHN cells after 3 days by fluorescence assay; format: functional; details: 72 h
SR = assay: Antiproliferative activity against human SR cells after 3 days by fluorescence assay; format: functional; details: 72 h
[27] = Antiproliferative activity against human OVCAR3 cells after 3 days by fluorescence assay; format: functional; details: OVCAR-3, 72 h
[28] = Antiproliferative activity against human MOLT4 cells after 3 days by fluorescence assay; format: functional; details: MOLT-4, 72 h
[29] = Antiproliferative activity against human EKVX cells after 3 days by fluorescence assay; format: functional; details: 72 h
T47D = assay: Antiproliferative activity against human T47D cells after 3 days by fluorescence assay; format: functional; details: 72 h

## COc1cccc(NC(=O)N2CCC(c3nc(-c4ccc(C)cc4)no3)CC2)c1
[1]
  GI50: 6.61 µM
NCI-H322M
  GI50: 11.7 µM
[2]
  GI50: 4.47 µM
Tubulin (Homo sapiens) [3]
  inhibition: 8.2%
NCI-H23
  GI50: 6.03 µM
SK-MEL-28
  GI50: 13.2 µM
MDA-MB-468
  GI50: 2.45 µM
A549
  GI50: 5.13 µM
SK-MEL-5
  GI50: 3.39 µM
[4]
  GI50: 4.37 µM
IGROV-1
  GI50: 9.12 µM
[5]
  GI50: 5.5 µM
[6]
  GI50: 6.46 µM
[7]
  GI50: 5.01 µM
DU-145 [8]
  GI50: 3.63 µM
[9]
  GI50: 13.2 µM
Tubulin (Homo sapiens) [10]
  inhibition: 19%
HOP-62
  GI50: 4.68 µM
SN12C
  GI50: 11 µM
NCI-H460
  GI50: 3.47 µM
NCI-H226
  GI50: 9.12 µM
786-0
  GI50: 6.03 µM
SK-MEL-2
  GI50: 11 µM
[11]
  GI50: 3.8 µM
[12]
  GI50: 2.75 µM
[13]
  GI50: 7.08 µM
[14]
  GI50: 3.31 µM
M14
  GI50: 3.24 µM
DU-145 [15]
  GI50: 4.5 µM
KM12
  GI50: 3.31 µM
HT-29
  GI50: 3.31 µM
U-251
  GI50: 4.17 µM
SW-620
  GI50: 3.98 µM
[16]
  GI50: 4.9 µM
SNB-19
  GI50: 8.71 µM
MCF7
  GI50: 3.24 µM
Tubulin
  IC50: 3 µM
Malme-3M
  GI50: 4.17 µM
MDA-MB-435
  GI50: 0.537 µM
Tubulin (Homo sapiens) [17]
  inhibition: 5.7%
SNB-75
  GI50: 7.94 µM
[18]
  GI50: 4.07 µM
[19]
  GI50: 5.5 µM
[20]
  GI50: 16.6 µM
[21]
  GI50: 3.09 µM
HL-60(TB)
  GI50: 0.603 µM
CAKI-1
  GI50: 5.75 µM
NCI-H522
  GI50: 4.07 µM
TK-10
  GI50: 9.55 µM
[22]
  GI50: 13.8 µM
[23]
  GI50: 3.47 µM
K562
  GI50: 0.355 µM
SF-268
  GI50: 7.24 µM
MDA-MB-231
  GI50: 18.2 µM
A498
  GI50: 5.01 µM
[24]
  GI50: 4.79 µM
[25]
  GI50: 3.31 µM
[26]
  GI50: 7.24 µM
CCRF-CEM
  GI50: 3.55 µM
ACHN
  GI50: 5.89 µM
SR
  GI50: 0.417 µM
[27]
  GI50: 2.63 µM
[28]
  GI50: 5.5 µM
[29]
  GI50: 6.76 µM
T47D
  GI50: 5.5 µM
